# According to patent US20110213143A1, “COMPOUND HAVING TAFIA INHIBITORY ACTIVITY” (TAISHO PHARMACEUTICAL CO., LTD., priority 2008, published 2011):
# Structures can show the parent of a compound that is named as a salt.
# Target: T1, TAFIa (Homo sapiens, UniProt Q96IY4)
# T1 construct: purchased Enzyme Research Laboratories
# T1 sequence (Q96IY4 115-423): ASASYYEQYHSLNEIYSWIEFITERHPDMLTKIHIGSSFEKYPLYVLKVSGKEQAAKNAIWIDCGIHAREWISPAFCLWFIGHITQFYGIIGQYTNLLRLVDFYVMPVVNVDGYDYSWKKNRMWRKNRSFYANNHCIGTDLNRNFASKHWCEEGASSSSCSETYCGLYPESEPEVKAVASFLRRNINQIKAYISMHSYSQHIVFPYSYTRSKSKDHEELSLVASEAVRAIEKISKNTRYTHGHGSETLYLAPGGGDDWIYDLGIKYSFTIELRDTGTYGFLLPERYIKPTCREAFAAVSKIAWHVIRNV
# Assay: TAFIa inhibition test (Hip-Arg substrate, absorbance at 405 nm)
# Assay type: biochemical
# Details: 40 minutes at room temperature, read-out: IC50 (TAFIa inhibitory activity)
# Protocol: Test 1 [TAFIa Inhibition Test]
# Compounds of the present invention were measured for their TAFIa inhibitory activity as follows based on the method described in Thromb. Haemost. 371 (1988).
# (a) Preparation of TAFIa Solution
# To 450 μl of TAFI (the product of Enzyme Research Laboratories whose concentration was adjusted to 18 μg/ml with buffer A: 100 mM Tris-HCl buffer, pH 7.4), 45 μl of a thrombomodulin solution (a rabbit lung derived thrombomodulin produced by American Diagnostia whose concentration was adjusted to 1 μg/ml with buffer B: 50 mM Tris-HCl, pH 7.5, containing 0.15 M NaCl) and 45 μl of a thrombin solution (a freeze-dried human plasma derived thrombin produced by Sigma and dissolved in water to have a concentration of 30 μ/ml) were added and the mixture was left to stand for 25 minutes at room temperature.
# (b) Method of Measuring TAFIa Inhibitory Activity
# To wells on a 96-well microplate, the above-prepared TAFIa solution, a test compound, and a substrate solution (Hip-Arg produced by Sigma and dissolved in buffer C of 100 mM Tris-HCl buffer, pH 8.3, to have a concentration of 3.6 mM) were added in respective amounts of 20 μl/well, 10 μl/well, and 70 μl/well. The individual components were mixed well and the reaction was carried out for 40 minutes at room temperature.
# Subsequently, a color former (1% cyanuric chloride in 1,4-dioxane) was added in an amount of 50 μl to each well and the plate was left to stand for 3 minutes at room temperature; then, the absorbance at 405 nm was measured with a microplate reader (Spectramax M2 of Molecular Devices). With the absorbance in the absence of a test compound minus the absorbance in the absence of an enzyme being taken as 100%, the concentration of the compound that inhibited 50% of the reaction (IC50) was calculated from the absorbance in the presence of the test compound minus the absorbance in the absence of the enzyme.
# For several compounds of the present invention, the above test was conducted and on the basis of the results of measurements, TAFIa inhibitory activity was calculated to give the results shown in Table 2.
row,IC50,Compound
1,110 nM,"CCOc1ccc2c(c1)CCc1c(CC(CCCN)C(=O)O)ncn1-2 (stereo not drawn) [Example 14, 5-amino-2-[(7-ethoxy-4,5-dihydroimidazo[1,5-a]quinolin-3-yl)methyl]pentanoic acid]"
2,61 nM,"Cc1ccc2c(c1)CCc1c(CC(CCCN)C(=O)O)ncn1-2 (stereo not drawn) [Example 11, 5-amino-2-[(7-methyl-4,5-dihydroimidazo[1,5-a]quinolin-3-yl)methyl]pentanoic acid dihydrochloride]"
3,410 nM,"NCCCC(Cc1ncn2c1CCc1cc(C(F)(F)F)ccc1-2)C(=O)O (stereo not drawn) [Example 27, 5-amino-2-{[7-(trifluoromethyl)-4,5-dihydroimidazo[1,5-a]quinolin-3-yl]methyl}pentanoic acid dihydrochloride]"
4,630 nM,"NCCCC(Cc1ncn2c1CNc1ccccc1-2)C(=O)O (stereo not drawn) [Example 18, 5-amino-2-(4,5-dihydroimidazo[1,5-a]quinoxalin-3-ylmethyl)pentanoic acid]"
5,72 nM,"NCCC[C@@H](Cc1ncn2c1CCc1cc(F)ccc1-2)C(=O)O [Example 26, (2S)-5-amino-2-[(7-fluoro-4,5-dihydroimidazo[1,5-a]quinolin-3-yl]methyl}pentanoic acid dihydrochloride]"
6,63 nM,"NCCC[C@@H](Cc1ncn2c1CCc1ccccc1-2)C(=O)O [Example 2, (2S)-5-amino-2-(4,5-dihydroimidazo[1,5-a]quinolin-3-ylmethyl)pentanoic acid]"
7,43 nM,"NCCC[C@@H](Cc1ncn2c1CCc1cc(CCC3CCCCC3)ccc1-2)C(=O)O [Example 24, (25)-5-amino-2-{[7-(2-cyclohexylethyl)-4,5-dihydroimidazo[1,5-a]quinolin-3-yl]methyl}pentanoic acid dihydrochloride]"
8,1100 nM,"NCCCC(Cc1ncn2c1COc1ccccc1-2)C(=O)O (stereo not drawn) [Example 5, 5-amino-2-(4H-imidazo[5,1-c][1,4]benzoxazin-3-ylmethyl)pentanoic acid]"
9,270 nM,"CCc1cccc2c1CCc1c(CC(CCCN)C(=O)O)ncn1-2 (stereo not drawn) [Example 8, 5-amino-2-[(6-ethyl-4,5-dihydroimidazo[1,5-a]quinolin-3-yl)methyl]pentanoic acid]"
10,2300 nM,"CNCCCC(Cc1ncn2c1CCc1ccccc1-2)C(=O)O (stereo not drawn) [Example 20, 2-(4,5-dihydroimidazo[1,5-a]quinolin-3-ylmethyl)-5-(methylamino)pentanoic acid]"
11,5100 nM,"Nc1cc(C(Cc2ncn3c2CCc2ccccc2-3)C(=O)O)ccn1 (stereo not drawn) [Example 22, 2-(2-aminopyridin-4-yl)-3-(4,5-dihydroimidazo[1,5-a]quinolin-3-yl)propanoic acid dihydrochloride]"
12,4400 nM,"NCCCC(Cc1ncn2c1CCc1ccccc1-2)c1nnn[nH]1 (stereo not drawn) [Example 23, 5-(4,5-dihydroimidazo[1,5-a]quinolin-3-yl)-4-(1H-tetrazol-5-yl)pentan-1-amine]"
13,140 nM,"NCCCC(Cc1ncn2c1CCc1cc(-c3ccccc3)ccc1-2)C(=O)O (stereo not drawn) [Example 15, 5-amino-2-[(7-phenyl-4,5-dihydroimidazo[1,5-a]quinolin-3-yl)methyl]pentanoic acid dihydrochloride]"
14,67 nM,"CCCc1ccc2c(c1)CCc1c(CC(CCCN)C(=O)O)ncn1-2 (stereo not drawn) [Example 17, 5-amino-2-[(7-propyl-4,5-dihydroimidazo[1,5-a]quinolin-3-yl)methyl]pentanoic acid dihydrochloride]"
15,1600 nM,"NCCCC(Cc1ncn2c1CCc1ccncc1-2)C(=O)O (stereo not drawn) [Example 6, 5-amino-2-(4,5-dihydroimidazo[1,5-a] [1,7]naphthyridin-3-ylmethyl)pentanoic acid]"
16,25 nM,"Cc1ccc2c(c1)CCc1c(C[C@H](CCCN)C(=O)O)ncn1-2 [Example 29, (2S)-5-amino-2-[(7-methyl-4,5-dihydroimidazo[1,5-a]quinolin-3-yl)methyl]pentanoic acid dihydrochloride]"
17,860 nM,"NCCC[C@H](Cc1ncn2c1CCc1ccccc1-2)C(=O)O [Example 3, (2R)-5-amino-2-(4,5-dihydroimidazo[1,5-a]quinolin-3-ylmethyl)pentanoic acid]"
18,190 nM,"NCCCC(Cc1ncn2c1CCc1c(Cl)cccc1-2)C(=O)O (stereo not drawn) [Example 9, 5-amino-2-[(6-chloro-4,5-dihydroimidazo[1,5-a]quinolin-3-yl)methyl]pentanoic acid]"
19,1800 nM,"Cc1ccc2c(c1)-n1cnc(CC(CCCN)C(=O)O)c1CC2 (stereo not drawn) [Example 12, 5-amino-2-[(8-methyl-4,5-dihydroimidazo[1,5-a]quinolin-3-yl)methyl]pentanoic acid]"
20,95 nM,"NCCCC(Cc1ncn2c1CCc1ccccc1-2)C(=O)O (stereo not drawn) [Example 1, 5-amino-2-(4,5-dihydroimidazo[1,5-a]quinolin-3-ylmethyl)pentanoic acid]"
21,150 nM,"Cc1cccc2c1CCc1c(CC(CCCN)C(=O)O)ncn1-2 (stereo not drawn) [Example 10, 5-amino-2-[(6-methyl-4,5-dihydroimidazo[1,5-a]quinolin-3-yl)methyl]pentanoic acid]"
22,28 nM,"CCCc1ccc2c(c1)CCc1c(C[C@H](CCCN)C(=O)O)ncn1-2 [Example 30, (S)-5-amino-2-((7-propyl-4,5-dihydroimidazo[1,5-a]quinolin-3-yl)methyl)pentanoic acid dihydrochloride]"
23,28 nM,"NCCC[C@@H](Cc1ncn2c1CCc1cc(C3CCCCC3)ccc1-2)C(=O)O [Example 25, (2S)-5-amino-2-[(7-cyclohexyl-4,5-dihydroimidazo[1,5-a]quinolin-3-yl)methyl]pentanoic acid dihydrochloride]"
24,6400 nM,"Cc1cccc2c1-n1cnc(CC(CCCN)C(=O)O)c1CC2 (stereo not drawn) [Example 7, 5-amino-2-[(9-methyl-4,5-dihydroimidazo[1,5-a]quinolin-3-yl)methyl]pentanoic acid dihydrochloride]"
25,1400 nM,"NCCCC(Cc1ncn2c1Cc1ccccc1C2)C(=O)O (stereo not drawn) [Example 21, 5-amino-2-(5,10-dihydroimidazo[1,5-b]isoquinolin-1-ylmethyl)pentanoic acid]"
26,180 nM,"NCCCC(Cc1ncn2c1CCc1cc(OC3CCCCC3)ccc1-2)C(=O)O (stereo not drawn) [Example 16, 5-amino-2-{[7-(cyclohexyloxy)-4,5-dihydroimidazo[1,5-a]quinolin-3-yl)methyl]pentanoic acid]"
27,580 nM,"NCCCC(Cc1ncn2c1CCc1ncccc1-2)C(=O)O (stereo not drawn) [Example 19, 5-amino-2-(4,5-dihydroimidazo[1,5-a] [1,5]naphthyridin-3-ylmethyl)pentanoic acid]"
28,3300 nM,"NCCCC(Cc1ncn2c1CCCc1ccccc1-2)C(=O)O (stereo not drawn) [Example 4, 5-amino-2-(5,6-dihydro-4H-imidazo[1,5-a] [1]benzazepin-3-ylmethyl)pentanoic acid]"
29,33 nM,"CC(C)c1ccc2c(c1)CCc1c(C[C@H](CCCN)C(=O)O)ncn1-2 [Example 28, (2S)-5-amino-2-[(7-isopropyl-4,5-dihydroimidazo[1,5-a]quinolin-3-yl)methyl]pentanoic acid dihydrochloride]"
30,3300 nM,"NCCCCC(C(=O)O)c1ncn2c1CCc1ccccc1-2 (stereo not drawn) [Example 13, 6-amino-2-(4,5-dihydroimidazo[1,5-a]quinolin-3-yl)hexanoic acid]"
